Assay results as given in patent US4113946A, “Δ^2,3 -1,4-Morpholine-2-carboxylic acid derivatives as antibacterial agents” (Bristol-Myers Company, priority 1977, dated 1978).
Values after ≈ are worked out from the molar mass of the structure shown. Like-named read-outs stand apart in the source and are kept apart here.

How the values were obtained:
Assay type in all cases: cell-based
[1] = tested on: S. aureus Smith A9537; assay: M.I.C. by tube dilution, S. aureus Smith A9537; settings: for MIC: Staphylococcus aureus
[2] = tested on: E. coli Juhl A15119; assay: M.I.C. by tube dilution, E. coli Juhl A15119; settings: for MIC: Escherichia coli, JUHLA15119
[3] = tested on: S. aureus meth.-resist; A15097; assay: M.I.C. by tube dilution, S. aureus meth.-resist A15097; settings: Staphylococcus aureus, at 10^-3 dil'n, overnight 37° C.
[4] = tested on: Sal. enteritidis A9531; assay: M.I.C. by tube dilution, Sal. enteritidis A9531; settings: for MIC: Salmonella enterica, ENTERITIDIS
[5] = tested on: Pr. morganii A15153; assay: M.I.C. by tube dilution, Pr. morganii A15153; settings: Morganella morganii
[6] = tested on: Str. pyogenes A9604; assay: M.I.C. by tube dilution, Str. pyogenes A9604; settings: Streptococcus pyogenes
[7] = tested on: D. pneumoniae A9585; assay: M.I.C. by tube dilution, D. pneumoniae A9585; settings: for MIC: Streptococcus pneumoniae, A9585
[8] = tested on: E. coli A9675; assay: M.I.C. by tube dilution, E. coli A9675; settings: Escherichia coli
[9] = tested on: Ser. marcescens A20019; assay: M.I.C. by tube dilution, Ser. marcescens A20019; settings: Serratia marcescens
[10] = tested on: K. pneumoniae A9977; assay: M.I.C. by tube dilution, K. pneumoniae A9977; settings: Klebsiella pneumoniae
[11] = tested on: Pr. mirabilis A9900; assay: M.I.C. by tube dilution, Pr. mirabilis A9900; settings: Proteus mirabilis
[12] = tested on: S. aureus BX1633-2 A9606; assay: M.I.C. by tube dilution, S. aureus BX1633-2 A9606; settings: overnight 37° C.; for MIC: Staphylococcus aureus
[13] = tested on: Ps. aeruginosa A9843A; assay: microbe, parasite or virus in culture; settings: Pseudomonas aeruginosa
[14] = tested on: K. pneumoniae A15130; assay: M.I.C. by tube dilution, K. pneumoniae A15130; settings: Klebsiella pneumoniae
[15] = tested on: Ent. cloacae A9659; assay: M.I.C. by tube dilution, Ent. cloacae A9659; settings: Enterobacter cloacae, A9659, overnight 37° C.
[16] = tested on: Ent. cloacae A9657; assay: M.I.C. by tube dilution, Ent. cloacae A9657; settings: Enterobacter cloacae, A9657, overnight 37° C.; read-out: M.I.C.
[17] = at 10^-4 dilution, overnight 37° C., read-out: M.I.C.
[18] = +5% serum, 50% Nutrient Broth - 45% Antibiotic Assay Broth, overnight 37° C., read-out: M.I.C.
[19] = BX16332A9606, at 10^-3 dil'n, read-out: M.I.C.
[20] = SMITHA9537, Table 9, compound of Ex. No., serum and dilution not given, read-out: M.I.C. S. aureus A9537
[21] = Table 9, compound of Ex. No., dilution not given, read-out: M.I.C. E. coli A15119
[22] = Table 9, compound of Ex. No., dilution not given, read-out: M.I.C. Sal. enteritidis A9531
[23] = Table 9, compound of Ex. No., serum not given, read-out: M.I.C. D. pneumoniae A9585
[24] = BX16332A9606, at 10^-2 dil'n, read-out: M.I.C.
[25] = Table 9, compound of Ex. No., dilution not given

| Compound | MIC [1, 20] [µg/mL] | MIC [2, 21] [µg/mL] | MIC [4, 22] [µg/mL] | MIC [7, 23] [µg/mL] | further results |
| --- | --- | --- | --- | --- | --- |
| O=C(COc1ccccc1)N[C@@H]1C(=O)N2C(C(=O)O)=COC[C@H]12 (relative stereo) [BC-L2, potassium 7 β-phenoxyacetamido-Δ^3 -O-2-isocephem-4-carboxylate] | – | – | – | – | MIC ([1]; SMITHA9537, +50% serum, at 10^-4 dilution, overnight 37° C.): 1 µg/mL; MIC ([1]; SMITHA9537, at 10^-4 dilution, overnight 37° C., read-out: M.I.C.): 1.3 µg/mL; MIC [2, 17]: 63 µg/mL; MIC [3]: > 125 µg/mL; MIC [4]: 16 µg/mL; MIC [5]: > 125 µg/mL; MIC [6, 18]: 0.6 µg/mL; MIC [7, 18]: 0.6 µg/mL; MIC [8]: > 125 µg/mL; MIC [9]: > 125 µg/mL; MIC [10]: 32 µg/mL; MIC [11, 17]: 63 µg/mL; MIC ([12]; BX16332A9606, at 10^-2 dil'n): > 125 µg/mL; MIC [12, 19]: 2.5 µg/mL; MIC [13]: > 125 µg/mL; MIC [14]: > 125 µg/mL |
| CC1=C(C(=O)O)N2C(=O)[C@@H](NC(=O)Cc3ccccc3CN)[C@H]2CO1 (relative stereo) [Example 24, 7β-(2-Aminomethylphenylacetamido)-3-methyl-Δ^3 -O-2-isocephem-4-carboxylic acid] | 0.6 (≈ 1.74 µM) | 16 (≈ 46.3 µM) | > 2.5 | 0.08 (≈ 0.232 µM) | – |
| COc1cccc(OC)c1C(=O)N[C@@H]1C(=O)N2C(C(=O)O)=C(C)OC[C@H]12 (relative stereo) [Example 26, 7β-(2,6-Dimethoxybenzamido)-3-methyl-Δ^3 -O-2-isocephem-4-carboxylic acid] | > 125 | > 125 | 32 (≈ 88.3 µM) | 32 (≈ 88.3 µM) | – |
| CC1=C(C(=O)O)N2C(=O)[C@@H](NC(=O)CNC(=N)Cc3ccccc3)[C@H]2CO1 (relative stereo) [Example 28, 7β-[N-(Phenylacetimidoyl)aminoacetamido]-3-methyl-Δ^3 -O-2-isocephem-4-carboxylic acid] | 4 (≈ 10.7 µM) | > 125 | 125 (≈ 336 µM) | 0.5 (≈ 1.34 µM) | – |
| CC1=C(C(=O)O)N2C(=O)[C@@H](NC(=O)NCOc3ccccc3)[C@H]2CO1 (relative stereo) [Example 31] | 32 (≈ 92.1 µM) | > 125 | > 125 | 16 (≈ 46.1 µM) | – |
| CC1=C(C(=O)O)N2C(=O)[C@@H](NC(=O)Cc3ccccc3)[C@H]2CO1 (relative stereo) [Example 32, 7β-Phenylacetamido-3-methyl-Δ^3-0-2-isocephem-4-carboxylic acid] | 1 (≈ 3.16 µM) | 125 (≈ 395 µM) | 4 (≈ 12.6 µM) | 0.5 (≈ 1.58 µM) | – |
| CC1=C(C(=O)O)N2C(=O)[C@@H](NC(=O)Cc3cccs3)[C@H]2CO1 (relative stereo) [Example 33, 7β-(2-Thienylacetamido)-3-methyl-Δ^3-0-2-isocephem-4-carboxylic acid] | 1 (≈ 3.1 µM) | 32 (≈ 99.3 µM) | 2 (≈ 6.2 µM) | 0.25 (≈ 0.776 µM) | – |
| CC1=C(C(=O)O)N2C(=O)[C@@H](NC(=O)Cc3ccccc3O)[C@H]2CO1 (relative stereo) [Example 35, 7β-(o-Hydroxyphenylacetamido)-3-methyl-Δ^3-0-2-isocephem-4-carboxylic acid] | 0.5 (≈ 1.5 µM) | > 125 | > 125 | 0.25 (≈ 0.752 µM) | – |
| CC1=C(C(=O)O)N2C(=O)[C@@H](NC(=O)CC#N)[C@H]2CO1 (relative stereo) [Example 36, 7β-[Cyanoacetamido]-3-methyl-Δ^3-0-2-isocephem-4-carboxylicacid] | 4 (≈ 15.1 µM) | 125 (≈ 471 µM) | 125 (≈ 471 µM) | 0.5 (≈ 1.89 µM) | – |
| CC1=C(C(=O)O)N2C(=O)[C@@H](NC(=O)c3c(-c4ccccc4Cl)noc3C)[C@H]2CO1 (relative stereo) [Example 39, 7β-[3-(o-chlorophenyl)-5-methyl-isoxazol-4-ylcarboxamido]-3-methyl-Δ^3-0-2-isocephem-4-carboxylic acid] | > 8 | > 125 | > 125 | 8 (≈ 19.1 µM) | – |
| N[C@@H](C(=O)N[C@@H]1C(=O)N2C(C(=O)O)=COC[C@H]12)c1ccccc1 [BC-L6, 7β-(D-α-aminophenylacetamido)-Δ^3 -O-2-isocephem-4-carboxylic acid] | – | – | – | – | MIC ([1]; SMITHA9537, +50% serum, at 10^-4 dilution, overnight 37° C., read-out: M.I.C.): 250 µg/mL (≈ 788 µM); MIC ([1]; SMITHA9537, at 10^-4 dilution, overnight 37° C.): 32 µg/mL (≈ 101 µM); MIC [2]: 125 µg/mL (≈ 394 µM); MIC ([3]; read-out: M.I.C.): > 500 µg/mL; MIC [4]: 32 µg/mL (≈ 101 µM); MIC [5, 17]: > 500 µg/mL; MIC [6]: 16 µg/mL (≈ 50.4 µM); MIC [7]: 16 µg/mL (≈ 50.4 µM); MIC [8, 17]: 250 µg/mL (≈ 788 µM); MIC [9, 17]: > 500 µg/mL; MIC [10, 17]: 63 µg/mL (≈ 199 µM); MIC [11]: 125 µg/mL (≈ 394 µM); MIC [12, 24]: 500 µg/mL (≈ 1580 µM); MIC ([12]; BX16332A9606, at 10^-3 dil'n): 125 µg/mL (≈ 394 µM); MIC [13]: > 500 µg/mL; MIC [14]: 125 µg/mL (≈ 394 µM) |
| CC1=C(C(=O)O)N2C(=O)[C@@H](NC(=O)[C@H](N)c3ccccc3)[C@H]2SC1 [Cephalexin, cephalexin, reference compound] | – | – | – | – | MIC ([3]; read-out: M.I.C.): 63 µg/mL (≈ 181 µM); MIC [4, 17]: 1 µg/mL (≈ 2.88 µM); MIC [15]: 125 µg/mL (≈ 360 µM); MIC [8]: 32 µg/mL (≈ 92.1 µM); MIC [12, 24]: 4 µg/mL (≈ 11.5 µM); MIC [12, 19]: 4 µg/mL (≈ 11.5 µM); M.I.C. ([12]; at 10^-2 dil'n): 8 meg./ml.; M.I.C. ([12]; at 10^-3 dil'n): 2 meg./ml.; MIC [16]: 2 µg/mL (≈ 5.76 µM) |
| CC1=C(C(=O)O)N2C(=O)[C@@H](NC(=O)C(NC(=O)NC(=O)c3ccccc3)c3ccccc3)[C@H]2CO1 (stereo partly drawn) [Example 25, 7β-(α-Benzoylureidophenylacetamido)-3-methyl-Δ^3 -O-2-isocephem-4-carboxylic acid] | 0.6 (≈ 1.25 µM) | 63 (≈ 132 µM) | 8 (≈ 16.7 µM) | 0.3 (≈ 0.627 µM) | – |
| CC1=C(C(=O)O)N2C(=O)[C@@H](NC(=O)[C@H](O)c3ccccc3)[C@H]2CO1 [Example 27, 7β-(D-α-Hydroxyphenylacetamido)-3-methyl-Δ^3 -O-2-isocephem-4-carboxylic acid] | 2 (≈ 6.02 µM) | 16 (≈ 48.1 µM) | 8 (≈ 24.1 µM) | 1 (≈ 3.01 µM) | – |
| CCCCC(=O)NC1C(=O)N2C(C(=O)O)=C(C)OCC12 (stereo not drawn) [Example 29, 7β-Valeramido-3-methyl-Δ^3 -O-2-isocephem-4-carboxylic acid] | 125 (≈ 443 µM) | > 125 | > 125 | 125 (≈ 443 µM) | – |
| CC1=C(C(=O)O)N2C(=O)[C@@H](NC(=O)C(C(=O)O)c3ccccc3)[C@H]2CO1 (stereo partly drawn) [Example 34, 7β-[α-carboxy-α-phenylacetamido]-3-methyl-Δ^3-0-2-isocephem-4-carboxylic acid] | 16 (≈ 44.4 µM) | 125 (≈ 347 µM) | 32 (≈ 88.8 µM) | 4 (≈ 11.1 µM) | – |
| CC1=C(C(=O)O)N2C(=O)C(NC(=O)Cn3ncnn3)C2CO1 (stereo not drawn) [Example 37, 7β-[2-(2H)-tetrazolylacetamido]-3-methyl-Δ^3-0-2-isocephem-4-carboxylic acid] | – | – | – | – | M.I.C. S. aureus A9537 ([1]; Table 9, compound of Ex. No., serum and dilution not given): > 125 µg/mL; M.I.C. E. coli A15119 [2, 25]: > 125 µg/mL; M.I.C. Sal. enteritidis A9531 [4, 25]: > 125 µg/mL; M.I.C. D. pneumoniae A9585 ([7]; Table 9, compound of Ex. No., serum not given): 125 µg/mL |
| CCOC(=O)NC1C(=O)N2C(C(=O)O)=C(C)OCC12 (stereo not drawn) [Example 38, 7β-(Ethoxycarboxamido)-3-methyl-Δ^3-0-2-isocephem-4-carboxylic acid] | 125 (≈ 463 µM) | > 125 | > 125 | 32 (≈ 118 µM) | – |
